Data set [1] in a line: IV and PO single dose pharmacokinetic studies in SD rats. Particulars: Sprague-Dawley, rat, plasma, male SD rats, IV infusion 1 mg/kg, oral gavage 2 mg/kg, read-out: Rat % F. It counts as in vivo. An outline of the steps:
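Fasted male Sprague-Dawley rats (n=3/group) dosed IV by 30-min jugular infusion at 1 mg/kg or by oral gavage at 2 mg/kg, in ethanol/PEG 400 vehicles at pH 2.0–2.2. Serial plasma to 24 h quantified by LC/MS/MS (SRM); non-compartmental analysis, linear-trapezoidal AUC, %F as oral vs IV AUC.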

Data set [2] relates to NS5A chimeric genotype 2a JFH-1 replicon with genotype 2b MD2b-1 strain NS5A gene (M31). As to the kind of experiment: HCV genotype 2b NS5A chimeric replicon assay, transient (t). Particulars: Hepatitis C virus, 72 h, read-out: 2b (t) (nM). It counts as cell-based. The essentials: (§1)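 Stable 1b Con1 RLuc replicon cells, or Huh-Lunet cells transiently transfected with chimeric replicons (Con1 backbone carrying 3a S52 or 4a ED43 NS5A; JFH-1 backbone carrying 2b MD2b-1 NS5A, M31), treated with 3-fold dilutions for 72 h. Renilla luciferase read after lysis; EC50 by non-linear regression.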

In data set [3] the test system is Y93H in genotype 1a NS5A replicon. Put plainly: Resistance mutant replicon assay, genotype 1a NS5A Y93H. It counts as cell-based, HCV. Particulars: Hepatitis C virus, read-out: 1a Y93H (nM). The essentials: (§2)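 Mutations introduced by site-directed mutagenesis into 1a or 1b Pi-RLuc replicons (3a Y93H in 1b Con1 chimera carrying 3a S52 NS5A), RNA transiently transfected into Huh-7-derived cured-51 cells. 3-fold compound dilutions; Renilla luciferase read after 72 h; EC50 by non-linear regression.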
In general terms: In antiviral work, replicon cells carry a viral genome segment that copies itself.

Data set [4] has as its system stable HCV 2a JFH-1 Rluc replicon cells (L31 present in NS5A). As to the kind of experiment: HCV genotype 2a JFH-1 RLuc replicon reporter assay. It counts as cell-based. Particulars: Hepatitis C virus, 72 h, read-out: 2a JFH (nM).
The subject of data set [5] is L31V/Y93H in genotype 1b NS5A replicon. As to the kind of experiment: Resistance mutant replicon assay, genotype 1b NS5A L31V/Y93H. It counts as cell-based, HCV. Particulars: Hepatitis C virus, read-out: 1b L31V/Y93H (nM). How it is done: (§3) Evaluation of cell-based anti-HCV activity: Antiviral potency (EC50) was determined using a Renilla luciferase (RLuc)-based HCV replicon reporter assay. To perform the assay for genotype 1 and 2a JFH-1, stable HCV 1a RLuc replicon cells (harboring a dicistronic genotype 1a H77 replicon that encodes a RLuc reporter), stable HCV lb RLuc replicon cells (harboring a dicistronic genotype 1b Conl replicon that encodes a RLuc reporter), or stable HCV 2a JFH-1 Rluc replicon cells (harboring a dicistronic genotype 2a JFH-1 replicon that encodes a RLuc reporter; with L31 present in NS5A) were dispensed into 384-well plates for EC50 assays. To perform the assay for genotype 2a (with M31 present in NS5A) or 2b, NS5A chimeric genotype 2a JFH-1 replicons that encodes a RLuc-Neo reporter and either genotype 2a J6 strain NS5A gene or genotype 2b MD2b-1 strain NS5A gene (both with M31 present) respectively, were either transiently transfected (t) into Huh-Lunet cells or were established as stably replicating replicon cells (s) is provided. Either cells were dispensed into 384-well plates for EC50 assays. To perform the assay for genotype 3 and 4, NS5A chimeric genotype 1b Conl replicons that encodes a Pi-RLuc reporter and either genotype 3a S52 strain NS5A gene or genotype 4a ED43 strain NS5A gene respectively, were transiently transfected (t) into Huh-Lunet cells, which were subsequently dispensed into 384-well plates. Compounds were dissolved in DMSO at a concentration of 10 mM and diluted in DMSO either manually or using an automated pipeting instrument. Serially 3-fold diluted compounds were either manually mixed with cell culture media and added to the seeded cells or directly added to the cells using an automated instrument. DMSO was used as a negative (solvent; no inhibition) control, and the protease inhibitor ITMN-191 was included at a concentration >100×EC50 as a positive control. 72 hours later, cells were lysed and Renilla luciferase activity quantified as recommended by the manufacturer (Promega-Madison, Wis.). Non-linear regression was performed to calculate EC50 values.
(§4) To determine the antiviral potency (EC50) against resistance mutants, resistance mutations, including M28T, Q30R, Q30H, Q30E, L31M, Y93C, Y93H, and Y93N in genotype 1a NS5A, Y93H and L31V/Y93H in genotype 1b NS5A, and Y93H for in genotype 3a NS5A, were introduced individually into either 1a Pi-Rluc or 1b Pi-Rluc replicons by site directed mutagenesis. Replicon RNA of each resistant mutant was transiently transfected into Huh-7-derived cured-51 cells and antiviral potency was determined on these transfected cells as described above.

The subject of data set [6] is stable HCV 1a RLuc replicon cells (genotype 1a H77 replicon). As to the kind of experiment: HCV genotype 1a RLuc replicon reporter assay. It counts as cell-based. Particulars: Hepatitis C virus; stable genotype 1a H77 RLuc replicon cells, 72 hours.
Data set [7] relates to stable HCV 1b RLuc replicon cells (genotype 1b Con1 replicon). As to the kind of experiment: HCV genotype 1b RLuc replicon reporter assay. It counts as cell-based. Particulars: Hepatitis C virus; stable genotype 1b Con1 RLuc replicon cells, 72 hours. The essentials: as §1
The subject of data set [8] is Y93N in genotype 1a NS5A replicon. Put plainly: Resistance mutant replicon assay, genotype 1a NS5A Y93N. Particulars: Hepatitis C virus, read-out: 1a Y93N (nM). It counts as cell-based, HCV. The essentials: as §2
Data set [9] relates to Q30R in genotype 1a NS5A replicon. Put plainly: Resistance mutant replicon assay, genotype 1a NS5A Q30R. It counts as cell-based, HCV. Particulars: Hepatitis C virus, read-out: 1a Q30R (nM). How it is done: as §3, §4
For data set [10], the system named is NS5A chimeric genotype 2a JFH-1 replicon with genotype 2a J6 strain NS5A gene (M31). Put plainly: HCV genotype 2a J6 NS5A chimeric replicon assay, transient (t). It counts as cell-based. Particulars: Hepatitis C virus, 72 h, read-out: 2a J6 (t) (nM).
The test system of data set [11] is NS5A chimeric genotype 1b Con1 replicon with genotype 3a S52 strain NS5A gene. As to the kind of experiment: HCV genotype 3a NS5A chimeric replicon assay. It counts as cell-based. Particulars: Hepatitis C virus, 72 h, read-out: 3a (nM). The essentials: as §1
Data set [12] concerns NS5A chimeric genotype 1b Con1 replicon with genotype 4a ED43 strain NS5A gene. Put plainly: HCV genotype 4a NS5A chimeric replicon assay. It counts as cell-based. Particulars: Hepatitis C virus, 72 h, read-out: 4a (s) (nM).
The subject of data set [13] is NS5A chimeric genotype 2a JFH-1 replicon with genotype 2b MD2b-1 strain NS5A gene (M31). Put plainly: HCV genotype 2b NS5A chimeric replicon assay, stable (s). It counts as cell-based. Particulars: Hepatitis C virus, 72 h, read-out: 2b (s) (nM).
Data set [14] relates to Q30E in genotype 1a NS5A replicon. Put plainly: Resistance mutant replicon assay, genotype 1a NS5A Q30E. Particulars: Hepatitis C virus, read-out: 1a Q30E (nM). It counts as cell-based, HCV. An outline of the steps: as §2
Data set [15] concerns Y93H in genotype 3a NS5A replicon. As to the kind of experiment: Resistance mutant replicon assay, genotype 3a NS5A Y93H. Particulars: Hepatitis C virus, read-out: 3a Y93H (nM). It counts as cell-based, HCV. The essentials:
as §2

`COC(=O)N[C@H](C(=O)N1[C@@H](C)CC[C@H]1c1ncc(-c2ccc3c(c2)COc2cc4c(ccc5nc([C@@H]6CCCN6C(=O)[C@@H](NC(=O)OC)C6CCOCC6)[nH]c54)cc2-3)[nH]1)C(C)C` [Comp 14, reference compound]: the bioavailability in data set [1] was found to be 6.88%. The EC50 in data set [2] worked out at 0.036 nM; in data set [3], 3.66 nM; in data set [4], 0.01 nM; in data set [5] it was 0.13 nM; in data set [6] it was 0.025 nM; in data set [7], 0.025 nM. Also, the EC50 in data set [8] was 1.75 nM; in [9], 1.2 nM; in [10] it was 0.053 nM.
`COC(=O)N[C@H](C(=O)N1[C@@H](C)CC[C@H]1c1ncc(-c2ccc3c(c2)COc2cc4c(ccc5nc([C@@H]6CC[C@H](C)N6C(=O)[C@@H](NC(=O)OC)[C@@H]6CCCOC6)[nH]c54)cc2-3)[nH]1)C(C)C` [Example AJ, Methyl{(1S)-2-[(2S,5S)-2-methyl-5-(9-{2-[(2S,5S)-1-{(2S)-2-[(methoxycarbonyl)amino]-3-methylbutanoyl}-5-methylpyrrolidin-2-yl]-1H-imidazol-5-yl}-1,11-dihydroisochromeno[4′,3′:6,7]naphtho[1,2-d]imidazol-2-yl)pyrrolidin-1-yl]-2-oxo-1-[(3S)-tetrahydro-2H-pyran-3-yl]ethyl}carbamate]: the EC50 in [11] was found to be 0.035 nM; in [12], 0.018 nM; in data set [4] it was 0.019 nM; in [5], 44 nM; in [13] it was 0.057 nM; in data set [6], 0.016 nM. The EC50 was 0.021 nM in data set [7]; 2.7 nM in data set [14]; 3.73 nM in data set [15]; 4.3 nM in [8]; 0.16 nM in data set [9]; 0.059 nM in data set [10].
As to `COC(=O)N[C@H](C(=O)N1[C@@H](C)CC[C@H]1c1ncc(-c2ccc3c(c2)COc2cc4c(ccc5nc([C@@H]6CC[C@H](C)N6C(=O)[C@@H](NC(=O)OC)[C@H]6CCCOC6)[nH]c54)cc2-3)[nH]1)C(C)C` [Example AI, Methyl{(1S)-2-[(2S,5S)-2-methyl-5-(9-{2-[(2S,5S)-1-{(2S)-2-[(methoxycarbonyl)amino]-3-methylbutanoyl}-5-methylpyrrolidin-2-yl]-1H-imidazol-5-yl}-1,11-dihydroisochromeno[4′,3′:6,7]naphtho[1,2-d]imidazol-2-yl)pyrrolidin-1-yl]-2-oxo-1-[(3R)-tetrahydro-2H-pyran-3-yl]ethyl}carbamate], the EC50 in data set [11] was found to be 0.028 nM; in data set [12] it was 0.012 nM; in data set [4], 0.017 nM; in data set [5] it was 21.4 nM; in [13], 0.058 nM; in [6], 0.014 nM. Also, the EC50 in [7] was 0.018 nM; in data set [14] it was 2.11 nM; in data set [15], 2.84 nM; in data set [8] it was 4.05 nM; in data set [9], 0.208 nM; in [10], 0.041 nM.
